Experimental data from patent US20040048754A1, “Compounds for a controlled release of active compounds” (priority 2001, published 2004).
Blank lines part the entries; values can stand above or below the molecule they belong to.

Assays:
Type in all cases: physicochemical
[1] = Amount of cyclization of the precursor under alkaline hydrolysis conditions (HPLC); conditions: 20° C., first step of cyclization only, % relative to total amount of starting compound
Experimental: Buffer solutions were prepared by dissolving two phosphate or borate buffer tablets (origin: Fluka, Switzerland) in a mixture of 160 ml water and 40 ml acetonitrile, respectively. To determine the exact pH value of the reaction solution, 10 ml of the buffer solutions were diluted with 2 ml of acetonitrile and the pH values measured (on a Mettler Toledo MP220 apparatus with an InLab 410 Ag/AgCl glass electrode) to be 7.62 (phosphate buffer) and 10.47 (borate buffer).
0.2 ml of a solution of 35 to 45 mg of the precursors in 25 ml of acetonitrile were added to 1.0 ml of a buffer solution at 20° C. The mixture was immediately injected in a HPLC apparatus (t=0), eluted at 1 ml/min on a reversed phase column with a mixture of water/acetonitrile containing 0.1% of TFA. Then the decrease of the amount of precursor and the simultaneous formation of the cyclized products was monitored at different time intervals at λ=254 and 280 nm. Chromatograms were recorded on a Macherey-Nagel, Nucleosil® 100-5 C18 column (250×4 mm i.d.) using a water/acetonitrile gradient (70:30 to 20:80 during 20 min) or on a Merck Chromolith™ SpeedROD RP-C18e column (50×4.6 mm i.d.) using a water/acetonitrile gradient (70:30 to 40:60 during 3 min).

[2] = Measure of fragrance release (hydrolysis) by UV spectroscopy; conditions: phosphate buffer, 20° C., 260-360 nm
Experimental: 2 ml of a precursor solution (35-55 mg in 25 ml of acetonitrile, at 20° C.) were added, at t=0, to 10 ml of a phosphate buffer solution (prepared as described in Example 14).
Hydrolysis was followed by recording the absorption spectra of the reaction mixture at constant time intervals in the range of 260-360 nm with a scanning rate of 960 nm/min until completion of the hydrolysis.

[3] = Amount of perfumery alcohols released by alkaline hydrolysis (HPLC); conditions: % relative to total amount of starting compound
Experimental: […] To determine the exact pH value of the reaction solution, 10 ml of the buffer solutions were diluted with 2 ml of acetonitrile and the pH values measured (on a Mettler Toledo […]).
About 25 mg of the precursors were placed in 1 ml of a buffer solution, 0.2 ml of acetonitrile was added and the supernatant solution was immediately injected in a […] HPLC apparatus (t=0), eluted at 3 ml/min on a reversed phase column with a mixture of water/acetonitrile containing 0.1% of TFA. The amount of the released alcohol was monitored by HPLC analysis at different time intervals at λ=214 or 254 nm. An external calibration curve for the corresponding alcohol in acetonitrile has been obtained from 4-8 dilutions. Chromatograms were recorded on a Merck Chromolith™ Performance RP-C18e column (100×4.6 mm i.d.) using a water/acetonitrile gradient (100:0 for 0.2 min then to 0:100 during 10 min or 80:20 to 20:80 during 10 min).

Molecule: CC(C)(Cc1ccccc1)OC(=O)c1ccccc1C(=O)NCCCCCCCNC(=O)c1ccccc1C(=O)OC(C)(C)Cc1ccccc1 [Example 4, bis(1,1-dimethyl-2-phenylethyl) 2,2′-(1,11-dioxo-2,10-diazaundecane-1,11-diyl)dibenzoate]
Amount of cyclized precursor ([1]; pH 10.47, 3.0 h): 98%

Molecule: CCCC(Cc1ccccc1)OC(=O)c1ccccc1C(=O)NCCCN(C)CCCNC(=O)c1ccccc1C(=O)OC(CCC)Cc1ccccc1 (racemic) [Example 2b, (±)-bis(1-benzylbutyl)2,2′-(6-methyl-1,11-dioxo-2,6,10-triazaundecane-1,11-diyl)dibenzoate]
Amount of cyclized precursor ([1]; pH 7.62, 2.1 h): 98%

Molecule: CN(CCCNC(=O)c1ccccc1C(=O)OC(C)(C)Cc1ccccc1)CCCNC(=O)c1ccccc1C(=O)OC(C)(C)Cc1ccccc1 [Example 3b, bis(1,1-dimethyl-2-phenylethyl) 2,2′-(6-methyl-1,11-dioxo-2,6,10-triazaundecane-1,11-diyl)dibenzoate]
Amount of cyclized precursor ([1]; pH 7.62, 22.4 h): 69%
Hydrolysis followed by UV absorption spectra [2]: verified

Molecule: CC(C)=CCC/C(C)=C/COC(=O)/C=C\C(=O)NCCNC(=O)/C=C\C(=O)OC/C=C(\C)CCC=C(C)C [Example 1, (6E,11Z,19Z,24E)-2,6,25,29-tetramethyl-9,22-dioxa-14,17-diaza-2,6,11,19,24,28-triaconta-hexaene-10,13,18,21-tetrone]
Amount of cyclized precursor ([1]; pH 7.62, 4.7 h): 97%

Molecule: dendrimer 16-cascade: 1,4-diaminobutane[4-N,N,N′,N′:(1-azabutylidene)^2:N-(2-[(1,1-dimethyl-2-phenylethoxy)carbonyl]benzoyl)propylamine [Example 8]
Amount of released alcohol ([3]; pH 10.98, 4 d, phosphate-bicarbonate buffer in water/acetonitrile 16:9): 69%

The remaining lines, values ahead:

Amount of cyclized precursor ([1]; pH 7.62, 9.4 h): 72%
Hydrolysis followed by UV absorption spectra [2]: verified
Molecule: C=CC(C)(CCC=C(C)C)OC(=O)c1ccccc1C(=O)NCCCN(C)CCCNC(=O)c1ccccc1C(=O)OC(C)(C=C)CCC=C(C)C (racemic) [Example 5b, (±)-bis(1,5-dimethyl-1-vinyl-4-hexenyl) 2,2′-(6-methyl-1,11-dioxo-2,6,10-triazaundecane-1,11-diyl)dibenzoate]

Amount of released alcohol ([3]; pH 10.47, 2 d): 29%
Molecule: CC(C)(Cc1ccccc1)OC(=O)c1ccccc1C(=O)NCCCN(CCCNC(=O)c1ccccc1C(=O)OC(C)(C)Cc1ccccc1)CCCN(CCCCN(CCCN(CCCNC(=O)c1ccccc1C(=O)OC(C)(C)Cc1ccccc1)CCCNC(=O)c1ccccc1C(=O)OC(C)(C)Cc1ccccc1)CCCN(CCCNC(=O)c1ccccc1C(=O)OC(C)(C)Cc1ccccc1)CCCNC(=O)c1ccccc1C(=O)OC(C)(C)Cc1ccccc1)CCCN(CCCNC(=O)c1ccccc1C(=O)OC(C)(C)Cc1ccccc1)CCCNC(=O)c1ccccc1C(=O)OC(C)(C)Cc1ccccc1 [Example 7]

Amount of cyclized precursor ([1]; pH 7.62, 24.6 h): 80%
Hydrolysis followed by UV absorption spectra [2]: verified
Molecule: CC(C)(Cc1ccccc1)OC(=O)c1ccccc1C(=O)NCCCN(CCCCN(CCCNC(=O)c1ccccc1C(=O)OC(C)(C)Cc1ccccc1)CCCNC(=O)c1ccccc1C(=O)OC(C)(C)Cc1ccccc1)CCCNC(=O)c1ccccc1C(=O)OC(C)(C)Cc1ccccc1 [Example 6b, Dendrimer 4-cascade: 1,4-diaminobutane[4-N,N,N′,N′]:N-(2-[(1,1-dimethyl-2-phenylethoxy)carbonyl]benzoyl)propylamine]
